# Tests used:
# Assay in all cases: Test D controlled growth environment herbicide test, pre- and postemergence
# Assay type in all cases: in vivo
# [1] = test system: lambsquarters (Chenopodium album)
# Excerpt: (§1) Seeds of plant species selected from bluegrass (annual bluegrass, Poa annua), blackgrass (Alopecurus myosuroides), Canada thistle (Cirsium arvense), canarygrass (Phalaris minor), chickweed (common chickweed, Stellaria media), geranium, cutleaf (cutleaf geranium, Geranium dissectum), galium (catchweed bedstraw, Galium aparine), bromegrass, downy (downy bromegrass, Bromus tectorum), field poppy (Papaver rhoeas), field violet (Viola arvensis), foxtail, green (green foxtail, Setaria viridis), deadnettle (henbit deadnettle, Lamium amplexicaule), ryegrass, Italian (Italian ryegrass, Lolium multiflorum), kochia (Kochia scoparia), lambsquarters (Chenopodium album), oilseed rape (Brassica napus), pigweed (Amaranthus retroflexus), chamomile (scentless chamomile, Matricaria inodora), Russian thistle (Salsola kali), speedwell (bird's-eye speedwell, Veronica persica), barley, spring (spring barley, Hordeum vulgare), wheat, spring (spring wheat, Triticum aestivum), buckwheat, wild (wild buckwheat, Polygonum convolvulus), mustard, wild (wild mustard, Sinapis arvensis), oat, wild (wild oat, Avena fatua), radish, wild (wild radish, Raphanus raphanistrum), windgrass (Apera spica-venti), barley, winter (winter barley, Hordeum vulgare), and wheat, winter (winter wheat, Triticum aestivum) were planted into a silt loam soil and treated preemergence with test chemicals formulated in a non-phytotoxic solvent mixture which included a surfactant.
# (§2) At the same time, these species were planted in pots containing Redi-Earth® planting medium (Scotts Company, 14111 Scottslawn Road, Marysville, Ohio 43041) comprising spaghnum peat moss, vermiculite, wetting agent and starter nutrients and treated with postemergence applications of the test chemicals formulated in the same manner. Plants ranged in height from 2 to 18 cm (1- to 4-leaf stage). Treated plants and controls were maintained in a controlled growth environment for 14 to 21 d after which time all species were compared to controls and visually evaluated. Plant response ratings, summarized in Table D, are based on a scale of 0 to 100 where 0 is no effect and 100 is complete control. A dash (-) response means no test result.
# [2] = test system: field poppy (Papaver rhoeas)
# Excerpt: as §1, §2
# [3] = test system: wheat, spring (spring wheat, Triticum aestivum)
# Excerpt: as §1, §2
# [4] = test system: windgrass (Apera spica-venti)
# Excerpt: as §1, §2
# [5] = test system: chamomile (scentless chamomile, Matricaria inodora)
# Excerpt: as §1, §2
# [6] = test system: blackgrass (Alopecurus myosuroides)
# Excerpt: as §1, §2
# [7] = test system: barley, winter (winter barley, Hordeum vulgare)
# Excerpt: as §1, §2
# [8] = test system: pigweed (Amaranthus retroflexus)
# Excerpt: as §1, §2
# [9] = test system: wheat, winter (winter wheat, Triticum aestivum)
# Excerpt: as §1, §2
# [10] = test system: bromegrass, downy (downy bromegrass, Bromus tectorum)
# Excerpt: as §1, §2
# [11] = test system: foxtail, green (green foxtail, Setaria viridis)
# Excerpt: as §1, §2
# [12] = test system: oat, wild (wild oat, Avena fatua)
# Excerpt: as §1, §2
# [13] = test system: mustard, wild (wild mustard, Sinapis arvensis)
# Excerpt: as §1, §2
# [14] = test system: chickweed (common chickweed, Stellaria media)
# Excerpt: as §1, §2
# [15] = Postemergence, 31 g ai/ha, scale 0 to 100 (0 no effect, 100 complete control)
# [16] = Postemergence, 125 g ai/ha, visual rating on scale 0 (no effect) to 100 (complete control), 14 to 21 d
# [17] = Postemergence, 250 g ai/ha, scale 0 to 100 (0 no effect, 100 complete control)
# [18] = Preemergence, 62 g ai/ha, scale 0 to 100 (0 no effect, 100 complete control)
# [19] = Preemergence, 125 g ai/ha, scale 0 to 100 (0 no effect, 100 complete control)
# [20] = Preemergence, 250 g ai/ha, scale 0 to 100, 0 no effect, 100 complete control
# [21] = postemergence, 62 g ai/ha, scale 0 to 100, 0 no effect, 100 complete control
smiles,measurement,setting,value
Cc1cc2ccccc2c(-c2c(O)c(C)nn(C)c2=O)c1C [Compound 34],Lambsquarters plant response rating,[1]; [15],90
same,"Plant response rating, Lambsquarters",[1]; [16],100
same,"Plant response rating, Lambsquarters",[1]; [17],100
same,"Plant response rating (scale of 0 to 100), Lambsquarters","[1]; Preemergence, 31 g ai/ha",60
same,"Plant response rating, Lambsquarters",[1]; [18],60
same,"Plant response rating, Lambsquarters",[1]; [19],95
same,"Plant response rating, Lambsquarters",[1]; [20],95
same,"Plant response rating, Lambsquarters",[1]; [21],95
same,Field Poppy plant response rating,[2]; [15],100
same,"Plant response rating, Field Poppy",[2]; [16],100
same,"Plant response rating, Field Poppy",[2]; [17],100
same,"Plant response rating, Field Poppy",[2]; [18],100
same,"Plant response rating, Field Poppy",[2]; [19],100
same,"Plant response rating, Field Poppy",[2]; [20],100
same,"Plant response rating, Field Poppy",[2]; [21],100
same,"Wheat, Spring plant response rating",[3]; [15],0
same,"Plant response rating, Wheat, Spring",[3]; [16],15
same,"Plant response rating, Wheat, Spring",[3]; [17],45
same,"Plant response rating (scale of 0 to 100), Wheat, Spring","[3]; Preemergence, 31 g ai/ha",0
same,"Plant response rating, Wheat, Spring",[3]; [18],0
same,"Plant response rating, Wheat, Spring",[3]; [19],25
same,"Plant response rating, Wheat, Spring",[3]; [20],60
same,"Plant response rating, Wheat, Spring",[3]; [21],10
same,Windgrass plant response rating,[4]; [15],40
same,"Plant response rating, Windgrass",[4]; [16],65
same,"Plant response rating, Windgrass",[4]; [17],75
same,"Plant response rating (scale of 0 to 100), Windgrass","[4]; Preemergence, 31 g ai/ha",15
same,"Plant response rating, Windgrass",[4]; [18],25
same,"Plant response rating, Windgrass",[4]; [19],55
same,"Plant response rating, Windgrass",[4]; [20],70
same,"Plant response rating, Windgrass",[4]; [21],50
same,Chamomile plant response rating,[5]; [15],75
same,"Plant response rating, Chamomile",[5]; [16],100
same,"Plant response rating, Chamomile",[5]; [17],100
same,"Plant response rating, Chamomile",[5]; [21],80
same,Blackgrass plant response rating,[6]; [15],25
same,"Plant response rating, Blackgrass",[6]; [16],70
same,"Plant response rating, Blackgrass",[6]; [17],75
same,"Plant response rating (scale of 0 to 100), Blackgrass","[6]; Preemergence, 31 g ai/ha",15
same,"Plant response rating, Blackgrass",[6]; [18],20
same,"Plant response rating, Blackgrass",[6]; [19],40
same,Blackgrass plant response rating,[6]; [20],65
same,"Plant response rating, Blackgrass",[6]; [21],40
same,"Plant response rating, Barley, Winter",[7]; [15],0
same,"Plant response rating, Barley, Winter",[7]; [16],0
same,"Plant response rating, Barley, Winter",[7]; [17],20
same,"Plant response rating (scale of 0 to 100), Barley, Winter","[7]; Preemergence, 31 g ai/ha",0
same,"Plant response rating, Barley, Winter",[7]; [18],0
same,"Plant response rating, Barley, Winter",[7]; [19],0
same,"Barley, Winter plant response rating",[7]; [20],65
same,"Plant response rating, Barley, Winter",[7]; [21],0
same,Pigweed plant response rating,[8]; [15],100
same,"Plant response rating, Pigweed",[8]; [16],100
same,"Plant response rating, Pigweed",[8]; [17],100
same,"Plant response rating (scale of 0 to 100), Pigweed","[8]; Preemergence, 31 g ai/ha",50
same,"Plant response rating, Pigweed",[8]; [18],95
same,"Plant response rating, Pigweed",[8]; [19],100
same,"Plant response rating, Pigweed",[8]; [20],100
same,"Plant response rating, Pigweed",[8]; [21],100
same,"Wheat, Winter plant response rating",[9]; [15],5
same,"Plant response rating, Wheat, Winter",[9]; [16],15
same,"Plant response rating, Wheat, Winter",[9]; [17],25
same,"Plant response rating (scale of 0 to 100), Wheat, Winter","[9]; Preemergence, 31 g ai/ha",0
same,"Plant response rating, Wheat, Winter",[9]; [18],0
same,"Plant response rating, Wheat, Winter",[9]; [19],25
same,"Plant response rating, Wheat, Winter",[9]; [20],40
same,"Plant response rating, Wheat, Winter",[9]; [21],25
same,"Bromegrass, Downy plant response rating",[10]; [15],20
same,"Plant response rating, Bromegrass, Downy",[10]; [16],40
same,"Plant response rating, Bromegrass, Downy",[10]; [17],70
same,"Plant response rating (scale of 0 to 100), Bromegrass, Downy","[10]; Preemergence, 31 g ai/ha",0
same,"Plant response rating, Bromegrass, Downy",[10]; [18],50
same,"Plant response rating, Bromegrass, Downy",[10]; [19],50
same,"Plant response rating, Bromegrass, Downy",[10]; [20],80
same,"Plant response rating, Bromegrass, Downy",[10]; [21],30
same,"Foxtail, Green plant response rating",[11]; [15],40
same,"Plant response rating, Foxtail, Green",[11]; [16],55
same,"Plant response rating, Foxtail, Green",[11]; [17],70
same,"Plant response rating (scale of 0 to 100), Foxtail, Green","[11]; Preemergence, 31 g ai/ha",55
same,"Plant response rating, Foxtail, Green",[11]; [18],60
same,"Plant response rating, Foxtail, Green",[11]; [19],60
same,"Plant response rating, Foxtail, Green",[11]; [20],75
same,"Plant response rating, Foxtail, Green",[11]; [21],45
same,"Oat, Wild plant response rating",[12]; [15],75
same,"Plant response rating, Oat, Wild",[12]; [16],95
same,"Plant response rating, Oat, Wild",[12]; [17],95
same,"Plant response rating (scale of 0 to 100), Oat, Wild","[12]; Preemergence, 31 g ai/ha",70
same,"Plant response rating, Oat, Wild",[12]; [18],75
same,"Plant response rating, Oat, Wild",[12]; [19],85
same,"Plant response rating, Oat, Wild",[12]; [20],90
same,"Plant response rating, Oat, Wild",[12]; [21],85
same,"Mustard, Wild plant response rating",[13]; [15],80
same,"Plant response rating, Mustard, Wild",[13]; [16],100
same,"Plant response rating, Mustard, Wild",[13]; [17],100
same,"Plant response rating (scale of 0 to 100), Mustard, Wild","[13]; Preemergence, 31 g ai/ha",15
same,"Plant response rating, Mustard, Wild",[13]; [18],25
same,"Plant response rating, Mustard, Wild",[13]; [19],75
same,"Plant response rating, Mustard, Wild",[13]; [20],100
same,"Plant response rating, Mustard, Wild",[13]; [21],85
same,Chickweed plant response rating,[14]; [15],95
same,"Plant response rating, Chickweed",[14]; [16],100
same,"Plant response rating, Chickweed",[14]; [17],100
same,"Plant response rating (scale of 0 to 100), Chickweed","[14]; Preemergence, 31 g ai/ha",85
same,"Plant response rating, Chickweed",[14]; [18],95
same,"Plant response rating, Chickweed",[14]; [19],100
same,"Plant response rating, Chickweed",[14]; [20],100
same,"Plant response rating, Chickweed",[14]; [21],100

# — patent publication US10597388B2, “Pyridazinone herbicides” (FMC CORPORATION, priority 2014, dated 2020)
